Reference: ChEMBL document CHEMBL1157603, “Structural insights into the design of small molecule inhibitors that selectively antagonize Mcl-1” (J Med Chem, 2010)

Key:
[1] = target: T1, Bcl-2-like protein 1 (Homo sapiens, UniProt Q07817); test: Displacement of fluorescein-labeled Bak-BH3 peptide from human Bcl-XL by fluorescence polarization assay
[2] = target: T2, Induced myeloid leukemia cell differentiation protein Mcl-1 (Homo sapiens, UniProt Q07820); test: Displacement of fluorescein-labeled Bak-BH3 peptide from human Mcl1 by fluorescence polarization assay
[3] = target: T1, Bcl-2-like protein 1; test: Binding affinity to human Bcl-XL by isothermal titration calorimetry
[4] = target: T2, Induced myeloid leukemia cell differentiation protein Mcl-1; test: Binding affinity to human Mcl1 by isothermal titration calorimetry

T2 sequence (Q07820 whole entry): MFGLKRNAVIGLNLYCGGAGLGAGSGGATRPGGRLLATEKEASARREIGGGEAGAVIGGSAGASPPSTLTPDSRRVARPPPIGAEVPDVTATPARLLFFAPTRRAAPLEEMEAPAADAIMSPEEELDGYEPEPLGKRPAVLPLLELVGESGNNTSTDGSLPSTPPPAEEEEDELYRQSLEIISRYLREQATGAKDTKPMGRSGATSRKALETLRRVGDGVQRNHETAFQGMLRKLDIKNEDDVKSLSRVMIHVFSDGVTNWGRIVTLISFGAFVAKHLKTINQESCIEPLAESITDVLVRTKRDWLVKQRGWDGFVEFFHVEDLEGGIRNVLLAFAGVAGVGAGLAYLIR
T1 sequence (Q07817 whole entry): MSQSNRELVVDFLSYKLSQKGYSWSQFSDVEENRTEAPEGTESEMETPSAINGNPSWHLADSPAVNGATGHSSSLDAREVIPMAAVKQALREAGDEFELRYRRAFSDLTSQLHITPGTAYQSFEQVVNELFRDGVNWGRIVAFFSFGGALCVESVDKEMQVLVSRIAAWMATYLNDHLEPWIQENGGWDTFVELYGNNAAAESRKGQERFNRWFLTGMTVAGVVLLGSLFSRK

Row | SMILES | Ki [1] [µM] | Ki [2] [µM] | Kd [3] [µM] | Kd [4] [µM]
1 | CC(C)C(C(=O)O)N1C(=O)/C(=C/c2ccc(Br)cc2)SC1=S (configuration not stated) | 10 | 44 | 8.7 | 84
2 | COc1ccc(-c2ccc(/C=C3\SC(=S)N([C@@H](Cc4ccccc4)C(=O)O)C3=O)cn2)cc1OC | > 100 | 8 | > 750 | 10
3 | COc1cccc(-c2ccc(/C=C3\SC(=S)N([C@@H](Cc4ccccc4)C(=O)O)C3=O)cn2)c1OC | 3.7 | 6.9 | 3.4 | 0.25
